From patent US20110009453A1, “S1P3 RECEPTOR INHIBITORS FOR TREATING INFLAMMATION” (priority 2008, published 2011)
Where two headings read alike, the source gives them in different places.

How the values were obtained:
human S1P3 receptor = target: T1, human S1P3 receptor (Homo sapiens, UniProt Q99500); assay: FLIPR assay in T24 cells stably expressing the human S1P3 receptor; format: cell-based; conditions: for inhibition at 10 µM: T-24, read-out: S1P3 percent inhibition (in parenthesis)
T1 construct: expressed in transfected cells
T1 sequence (Q99500 whole entry): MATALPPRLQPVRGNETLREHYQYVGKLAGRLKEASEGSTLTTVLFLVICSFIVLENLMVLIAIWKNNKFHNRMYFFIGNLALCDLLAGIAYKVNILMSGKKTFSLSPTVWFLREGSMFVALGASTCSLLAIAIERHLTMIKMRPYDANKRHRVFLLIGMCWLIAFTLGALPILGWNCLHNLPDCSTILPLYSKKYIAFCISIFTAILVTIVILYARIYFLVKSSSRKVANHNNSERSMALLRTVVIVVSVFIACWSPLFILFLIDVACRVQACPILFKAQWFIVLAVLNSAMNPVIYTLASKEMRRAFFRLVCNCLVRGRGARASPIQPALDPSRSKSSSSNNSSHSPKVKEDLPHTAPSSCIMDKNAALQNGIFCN
Method: Another method of determining if a compound is an S1P3 receptor inhibitor is with a FLIPR assay. An example of this method is described in U.S. patent application Ser. No. 11/675,168, the contents of which are incorporated herein by reference. According to that application, compounds may be assessed for their ability to activate or block activation of the human S1P3 receptor in T24 cells stably expressing the human S1P3 receptor. In this assay ten thousand cells/well are plated into 384-well poly-D-lysine coated plates one day prior to use. The growth media for the S1P3 receptor expressing cell line is McCoy's 5A medium supplemented with 10% charcoal-treated fetal bovine serum (FBS), 1% antibiotic-antimycotic and 400 μg/ml geneticin. On the day of the experiment, the cells are washed twice with Hank's Balanced Salt Solution supplemented with 20 mM HEPES (HBSS/Hepes buffer). The cells are then dye loaded with 2 uM Fluo-4 diluted in the HBSS/Hepes buffer with 1.25 mM Probenecid and incubated at 37° C. for 40 minutes. Extracellular dye is removed by washing the cell plates four times prior to placing the plates in the FLIPR (Fluorometric Imaging Plate Reader, Molecular Devices). Ligands are diluted in HBSS/Hepes buffer and prepared in 384-well microplates. The positive control, S1P, is diluted in HBSS/Hepes buffer with 4 mg/ml fatty acid free bovine serum albumin. The FLIPR transfers 12.5 μl from the ligand microplate to the cell plate and takes fluorescent measurements for 75 seconds, taking readings every second, and then for 2.5 minutes, taking readings every 10 seconds. Drugs are tested over the concentration range of to 0.61 nM to 10,000 nM. Data for Ca^+2 responses is obtained in arbitrary fluorescence units and not translated into Ca^+2 concentrations. IC50 values are determined through a […] analysis using the Levenburg Marquardt algorithm.
Examples of such compounds include the following. […] The EC50 and IC50 values expressed in the following table were obtained in the FLIPR assay described above. EC50 or IC50 values are stated first, followed by percent efficacy or percent inhibition stated in parenthesis. In this table and the next, percent efficacy is defined as percent of receptor activity induced by a test compound at the highest dose tested (10 μM) relative to the receptor activity induced by 5 nM sphingosine-1-phosphate, and percent inhibition is defined as percent of receptor activity induced by 5 nM sphingosine-1-phosphate that is inhibited by a test compound at the highest dose tested (10 μM). “NA” means that no activity was detected at highest dose tested; “ND” means not determined.
The IC50 values expressed below were obtained in the FLIPR assay described above. IC50 values are stated first (except as otherwise noted), followed by percent efficacy or percent inhibition in parenthesis.

S1P1 receptor = S1P1 receptor (Homo sapiens, UniProt P21453); assay: FLIPR assay (Ca2+ response), S1P1 receptor; format: cell-based
Chain of S1P1 receptor (P21453 whole entry): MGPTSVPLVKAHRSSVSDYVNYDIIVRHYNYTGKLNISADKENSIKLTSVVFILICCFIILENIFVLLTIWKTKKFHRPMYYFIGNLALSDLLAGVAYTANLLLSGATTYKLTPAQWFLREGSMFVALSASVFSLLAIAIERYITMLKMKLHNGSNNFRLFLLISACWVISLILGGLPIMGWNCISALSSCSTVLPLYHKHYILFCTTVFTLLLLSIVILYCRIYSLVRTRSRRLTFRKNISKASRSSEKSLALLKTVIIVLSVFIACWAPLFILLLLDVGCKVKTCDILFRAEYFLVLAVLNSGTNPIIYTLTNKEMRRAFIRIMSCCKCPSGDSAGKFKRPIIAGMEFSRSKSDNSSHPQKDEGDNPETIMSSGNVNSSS

[1] = percent of activity induced by 5 nM sphingosine-1-phosphate inhibited at 10 μM, table of additional selective S1P3 inhibitors
[2] = FLIPR, table of additional selective S1P3 inhibitors, read-out: S1P3 (IC50)
[3] = FLIPR, values given in μM, read-out: S1P3 (IC50)
[4] = percent of activity induced by 5 nM sphingosine-1-phosphate inhibited at highest dose tested (10 μM)
[5] = FLIPR, values in nM, read-out: S1P3 (IC50)
[6] = tested 0.61 nM to 10,000 nM, NA = no activity detected at highest dose tested, read-out: S1P1 (EC50)

| SMILES | inhibition at 10 µM (human S1P3 receptor; [1]) | IC50 (human S1P3 receptor; [3]) | inhibition at 10 µM (human S1P3 receptor; [4]) | other results |
| --- | --- | --- | --- | --- |
| CC(C)c1c(C(=O)NCc2ccc(F)c(F)c2)c2cc(O)ccc2n1Cc1ccccc1 | 98% | – | – | IC50 (human S1P3 receptor): 0.035 µM |
| O=C(NCc1ccc(F)c(F)c1)c1c(C2CCCC2)n(Cc2ccccc2)c2ccc(O)cc12 | 100% | – | – | IC50 (human S1P3 receptor; [2]): 0.031 µM |
| CC(C)c1c(C(=O)NCc2ccc(F)c(F)c2)c2ccccc2n1Cc1ccccc1 | 100% | – | – | IC50 (human S1P3 receptor): 0.209 µM |
| CCOc1ccc2c(C(=O)NCc3ccc(F)c(F)c3)c(C(C)C)n(Cc3ccccc3)c2c1 | 100% | – | – | IC50 (human S1P3 receptor): 0.019 µM |
| CCCOc1ccc2c(C(=O)NCc3ccc(F)c(F)c3)c(C(C)C)n(Cc3ccccc3)c2c1 | 100% | – | – | IC50 (human S1P3 receptor): 0.005 µM |
| CC(C)Oc1ccc2c(C(=O)NCc3ccc(F)c(F)c3)c(C(C)C)n(Cc3ccccc3)c2c1 | 100% | – | – | IC50 (human S1P3 receptor): 0.006 µM |
| O=C(NCc1ccc(F)c(F)c1)c1c(C2CCCC2)n(Cc2ccccn2)c2ccc(O)cc12 | 99% | – | – | IC50 (human S1P3 receptor; [2]): 0.017 µM |
| O=P(O)(O)CCCNCc1ccc(-c2ccccc2)c(-c2ccccc2)n1 [Compound 146] | – | 1.6 µM | 83% | – |
| Cc1ccc(-c2ccc(CNCCCP(=O)(O)O)nc2-c2ccccc2)cc1 [Compound 147] | – | – | 98% | IC50 (human S1P3 receptor; [5]): 0.231 µM; EC50 (S1P1 receptor; [6]): 121 nM |
| CCc1ccc(-c2ccc(CNCCCP(=O)(O)O)nc2-c2ccccc2)cc1 [Compound 148] | – | – | 98% | IC50 (human S1P3 receptor; [5]): 0.319 µM; EC50 (S1P1 receptor; [6]): 170 nM |
| CCc1ccc(-c2ccc(CNCCP(=O)(O)O)nc2-c2ccccc2)cc1 [Compound 149] | – | 1.8 µM | 99% | – |
| O=P(O)(O)CCCNCc1ccc(-c2ccc(C(F)(F)F)cc2)c(-c2ccccc2)n1 [Compound 150] | – | – | 95% | – |
| CCc1ccc(-c2ccc(CNCCCP(=O)(O)O)nc2-c2ccncc2)cc1 [Compound 151] | – | 1.1 µM | 95% | – |
| CCc1ccc(-c2ccc(CNCCP(=O)(O)O)nc2-c2ccncc2)cc1 [Compound 152] | – | 1.8 µM | 68% | – |
| CCc1ccc(-c2ccc(CNCCCCP(=O)(O)O)nc2-c2ccccc2)cc1 [Compound 153] | – | – | 30% | – |
| CCCc1ccc(-c2ccc(CNCCCP(=O)(O)O)nc2-c2ccccc2)cc1 [Compound 154] | – | – | 98% | IC50 (human S1P3 receptor; [5]): 0.319 µM; EC50 (S1P1 receptor; [6]): 114 nM |
| CCc1ccc(-c2ccc(COCCCP(=O)(O)O)nc2-c2ccccc2)cc1 [Compound 155] | – | 4 µM | 27% | – |
| Cc1ccc(-c2ccc(COCCCP(=O)(O)O)nc2-c2ccccc2)cc1 [Compound 156] | – | 1.9 µM | 11% | – |
| CCc1ccc(-c2ccc(CNCCCP(=O)(O)O)nc2-c2ccccc2)cc1 [drawing 165] | – | – | – | IC50 (human S1P3 receptor; [2]): 0.319 µM; S1P3 percent inhibition (in parenthesis) (human S1P3 receptor; [1]): 98%; EC50 (S1P1 receptor; table of additional selective S1P3 inhibitors, read-out: S1P1 EC50 (noted in IC50 column)): 170 nM |
